Assay results reported in US20150018317A1, “BIOCIDAL COMPOSITION” (Dow Global Technologies LLC, priority 2010, published 2015).

System: bacteria isolated from a industrial cooling water sample
Experiment: Time-kill test in cooling water samples (MPN serial dilution)
Format: cell-based
Settings: 37° C., start about 5×10^7 CFU/ml
Procedure: In this example, tributyl tetradecyl phosphonium chloride (TTPC), tetrakis(hydroxymethyl)phosphonium sulfate (THPS), and combinations of TTPC and THPS are tested at different concentrations for efficacy against bacteria isolated from a industrial cooling water sample. Water samples containing a final bacterial concentration of about 5×10^7 CFU/ml are used. Biocide solutions are prepared and diluted in sterile deionized water and used within 2 hours.
Time-kill tests are carried out to determine the threshold concentrations required for biocide activity in the cooling water samples. Tests are conducted in a 96-deep well block format using a total sample volume of 600 μl for all evaluations. In these samples, no more than 10% of the total volume consists of the biocide and organism solution and all non-matrix additions are normalized for all samples. Each experimental 96-well block contains biocide-treated samples and control samples which lack biocide. The biocides are added to the bacterial suspension at various concentrations and mixed well. The mixture samples are then incubated at 37° C. At several time intervals starting from 1 hour, viable bacteria left in the mixture are determined using the MPN method of serial dilution.
Synergy Index (SI) is calculated as shown below. An SI value of less than 1 indicates synergy.
Ca: Concentration of biocide A required to achieve bacterial concentrations of 2×10^3 CFU/ml or less when used in combination
CA: Concentration of biocide A required to achieve bacterial concentrations of 2×10^3 CFU/ml or less when used alone
Cb: Concentration of biocide B required to achieve bacterial concentrations of 2×10^3 CFU/ml or less when used in combination
CB: Concentration of biocide B required to achieve bacterial concentrations of 2×10^3 CFU/ml or less when used alone

Compound: CCCCCCCCCCCCCC[P+](CCCC)(CCCC)CCCC.[Cl-] [TTPC, tributyl tetradecyl phosphonium chloride]
- Concentration of active needed to achieve bacterial concentrations of 2×10^3 CFU/ml or less, biocide used alone (4 hr): 30 ppm
- Concentration of active needed to achieve bacterial concentrations of 2×10^3 CFU/ml or less, biocide used alone (24 hr): 40 ppm
- Concentration of active needed to achieve bacterial concentrations of 2×10^3 CFU/ml or less, biocide used alone (48 hr): 40 ppm
- Concentration of active needed to achieve bacterial concentrations of 2×10^3 CFU/ml or less, biocide used alone (3 day): 40 ppm
- Concentration of active needed to achieve bacterial concentrations of 2×10^3 CFU/ml or less, biocide used alone (5 day): 40 ppm
- Concentration of active needed to achieve bacterial concentrations of 2×10^3 CFU/ml or less, biocide used alone (7 day): 40 ppm

Compound: tetrakis(hydroxymethyl)phosphonium sulfate [THPS]
- Concentration of active needed to achieve bacterial concentrations of 2×10^3 CFU/ml or less, biocide used alone (4 hr): 100 ppm
- Concentration of active needed to achieve bacterial concentrations of 2×10^3 CFU/ml or less, biocide used alone (24 hr): 75 ppm
- Concentration of active needed to achieve bacterial concentrations of 2×10^3 CFU/ml or less, biocide used alone (48 hr): 75 ppm
- Concentration of active needed to achieve bacterial concentrations of 2×10^3 CFU/ml or less, biocide used alone (3 day): 75 ppm
- Concentration of active needed to achieve bacterial concentrations of 2×10^3 CFU/ml or less, biocide used alone (5 day): 75 ppm
- Concentration of active needed to achieve bacterial concentrations of 2×10^3 CFU/ml or less, biocide used alone (7 day): 75 ppm
